The results in this text go back to ChEMBL document CHEMBL3132795, “Synthesis, functional and binding profile of (R)-apomorphine based homobivalent ligands targeting the dopamine D2 receptor” (Medchemcomm, 2013).

T1 sequence (P14416 whole entry): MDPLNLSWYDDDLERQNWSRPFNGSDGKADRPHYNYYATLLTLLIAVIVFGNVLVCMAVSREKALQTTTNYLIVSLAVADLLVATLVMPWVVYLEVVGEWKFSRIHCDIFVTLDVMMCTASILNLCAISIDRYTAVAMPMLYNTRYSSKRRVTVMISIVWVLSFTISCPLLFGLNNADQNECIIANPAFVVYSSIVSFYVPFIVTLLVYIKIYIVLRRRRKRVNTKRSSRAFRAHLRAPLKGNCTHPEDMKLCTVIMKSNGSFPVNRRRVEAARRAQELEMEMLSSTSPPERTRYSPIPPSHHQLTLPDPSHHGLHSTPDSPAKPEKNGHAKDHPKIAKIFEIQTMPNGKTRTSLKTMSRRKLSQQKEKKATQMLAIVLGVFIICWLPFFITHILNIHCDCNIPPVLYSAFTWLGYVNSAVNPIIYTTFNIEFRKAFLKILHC

One experiment has as its target T1, D(2) dopamine receptor (Homo sapiens, UniProt P14416). Briefly: Agonist activity at human recombinant dopamine D2L receptor expressed in CHOFlpIn cells assessed as ERK1/2 phosphorylation by alphascreen assay. In kind it is cell-based. A general note: Alpha assays give light when donor and acceptor beads are brought close together.
By EC50 is commonly meant the concentration needed to bring the measured effect to its halfway point. Take `CN1CCc2cccc3c2[C@H]1Cc1ccc(OCCCNC(=O)CCCCC(=O)NCCCOc2ccc4c(c2O)-c2cccc5c2[C@@H](C4)N(C)CC5)c(O)c1-3`: the EC50 stood at 149 nM.

Turning to `CN1CCc2cccc3c2[C@H]1Cc1ccc(OCCCNC(=O)CCCCCCC(=O)NCCCOc2ccc4c(c2O)-c2cccc5c2[C@@H](C4)N(C)CC5)c(O)c1-3`, the EC50 was 419 nM.

`CN1CCc2cccc3c2[C@H]1Cc1ccc(OCCCNC(=O)CCCCCCCCCCCCCCCCC(=O)NCCCOc2ccc4c(c2O)-c2cccc5c2[C@@H](C4)N(C)CC5)c(O)c1-3`: the EC50 was 385 nM. The same measure, in the same setting: then `CN1CCc2cccc3c2[C@H]1Cc1ccc(OCCCN)c(O)c1-3`, with 10 nM; and `CN1CCc2cccc3c2[C@H]1Cc1ccc(OCCCNC(=O)CCCCCCCCCCCCC(=O)NCCCOc2ccc4c(c2O)-c2cccc5c2[C@@H](C4)N(C)CC5)c(O)c1-3`, with 224 nM.

As for `CN1CCc2cccc3c2[C@H]1Cc1ccc(OCCCNC(=O)CCCCCCCCCCC(=O)NCCCOc2ccc4c(c2O)-c2cccc5c2[C@@H](C4)N(C)CC5)c(O)c1-3`, the EC50 came to 110 nM. The same measure, in the same setting: then `CN1CCc2cccc3c2[C@H]1Cc1ccc(OCCCNC(=O)CCCCCNC(=O)OC(C)(C)C)c(O)c1-3`, with 266 nM; and `CN1CCc2cccc3c2[C@H]1Cc1ccc(OCCCNC(=O)CCCCCCCCCCCCCCCCCCC(=O)NCCCOc2ccc4c(c2O)-c2cccc5c2[C@@H](C4)N(C)CC5)c(O)c1-3`, with 248 nM. The same measure, in the same setting: the same measure for `CC(=O)NCCCOc1ccc2c(c1O)-c1cccc3c1[C@@H](C2)N(C)CC3`: 132 nM. Still for that read-out and setting: then `CN1CCc2cccc3c2[C@H]1Cc1ccc(OCCCNC(=O)CCCCCCCCC(=O)NCCCOc2ccc4c(c2O)-c2cccc5c2[C@@H](C4)N(C)CC5)c(O)c1-3`, with 79 nM; and `CN1CCc2cccc3c2[C@H]1Cc1ccc(OCCCNC(=O)CCC(=O)NCCCOc2ccc4c(c2O)-c2cccc5c2[C@@H](C4)N(C)CC5)c(O)c1-3`, with 396 nM.

Another experiment has as its target T1, D(2) dopamine receptor. Kind of experiment: Displacement of [3H]spiperone from human recombinant dopamine D2L receptor expressed in CHOFlpIn cells after 3 hrs by liquid scintillation counting. Format: cell-based. (In general: Loss of bound radioactivity is the signal in a displacement assay; it reports binding, not function.)
As a reminder, the IC50 is the concentration needed to halve the response being measured. Turning to `CN1CCc2cccc3c2[C@H]1Cc1ccc(OCCCNC(=O)CCCCC(=O)NCCCOc2ccc4c(c2O)-c2cccc5c2[C@@H](C4)N(C)CC5)c(O)c1-3`, the IC50 was 5320 nM. Same read-out and setting: then `CN1CCc2cccc3c2[C@H]1Cc1ccc(OCCCNC(=O)CCCCCCC(=O)NCCCOc2ccc4c(c2O)-c2cccc5c2[C@@H](C4)N(C)CC5)c(O)c1-3`, with 3600 nM; and `CN1CCc2cccc3c2[C@H]1Cc1ccc(OCCCNC(=O)CCCCCCCCCCCCCCCCC(=O)NCCCOc2ccc4c(c2O)-c2cccc5c2[C@@H](C4)N(C)CC5)c(O)c1-3`, with 2680 nM. Same read-out and setting: the same measure for `CN1CCc2cccc3c2[C@H]1Cc1ccc(OCCCNC(=O)CCCCCCCCCCC(=O)NCCCOc2ccc4c(c2O)-c2cccc5c2[C@@H](C4)N(C)CC5)c(O)c1-3`: 183 nM.

Take `CN1CCc2cccc3c2[C@H]1Cc1ccc(OCCCNC(=O)CCCCCNC(=O)OC(C)(C)C)c(O)c1-3`: the IC50 amounted to 6540 nM. The same measure, in the same setting: the same measure for `CN1CCc2cccc3c2[C@H]1Cc1ccc(OCCCNC(=O)CCCCCCCCCCCCCCCCCCC(=O)NCCCOc2ccc4c(c2O)-c2cccc5c2[C@@H](C4)N(C)CC5)c(O)c1-3`: 1550 nM; for `CN1CCc2cccc3c2[C@H]1Cc1ccc(OCCCNC(=O)CCCCCCCCC(=O)NCCCOc2ccc4c(c2O)-c2cccc5c2[C@@H](C4)N(C)CC5)c(O)c1-3`: 1350 nM. Same read-out and setting: the same measure for `CN1CCc2cccc3c2[C@H]1Cc1ccc(OCCCNC(=O)CCC(=O)NCCCOc2ccc4c(c2O)-c2cccc5c2[C@@H](C4)N(C)CC5)c(O)c1-3`: 4360 nM.
